Entries after “also recorded” stand apart in the source; their conditions may differ.

Tested on in one data set: not listed separately
As to the kind of experiment: Experimental aqueous solubility (UV spectrophotometry of saturated solutions). It counts as physicochemical. The settings on record: experimental solubility. The protocol:
Experimental aqueous solubility was determined following a previously described procedure. Briefly, calibration curves were obtained by means of UV spectrometry for each compound, and their respective linear equations were obtained. Afterwards, saturated solutions of each compound were obtained, and they were diluted until the concentration fell within the calibration range, thus enabling the correct concentration interpolation. […] A detailed description of this process can be found in Supplementary Materials.
The aqueous solubility of the tested organic Se compounds was experimentally determined following a previously described procedure. The chosen assay used UV spectrophotometry to estimate the concentration of the saturated solution with known dilutions of the tested compound at room temperature (20° C) after 24 h. The concentrations of the solutions were used to obtain the interpolation of the measured UV absorbance of the saturated solution dilution from the calibration curve drawn using solutions previously prepared in methanol/water mixtures. […]
1.2. Determination of the aqueous solubility
1.2.1. Preparation of the saturated solutions of tested compounds
The saturated solutions (2 mL) of the tested Se-compounds in water were prepared at H2O boiling point in small glass vials. Later, vials were covered to avoid evaporation and all solutions were left 1 day at 20° C, after when every solution was filtered. Finally, the concentration of the Se-compounds was determined through UV spectrophotometric measurements. To estimate correctly the concentration, calibration curves with known concentrations were prepared, and the saturated solutions were diluted till reaching a point within the range of the respective calibration curve.
1.2.2. Preparation of the calibration curve stock solutions for UV spectrometry The stock solutions of 10 selenoesters (EDA-26, EDA-71, EDA-73, EDA-74, EDA-93, […]
were prepared in methanol (99% purity) at a 1 g/L concentration. Additionally, calibration solutions in the range from 0.0005 to 0.02 [g/L] were prepared for each Se-compound and their UV absorbance was determined to draw the corresponding calibration curve.
1.2.3. Sample preparation of saturated filtrates for UV spectrometry
The 100-fold diluted solutions of the saturated filtrates of the Se-compounds were prepared in the anhydrous methanol (99% purity), by addition of 70 μL of the correspond-ing methanol stock solution over anhydrous methanol till filling a 7 mL final volume. Af-terwards, the absorption of abovementioned solutions was determined. Finally, the solu-tions were diluted with 99% methanol from 1 to 160 times, in function of the compound.
The aim of this procedure was to determine the concentration of the Se-compounds […]
through the controlled dilution of the solution with unknown concentration till its UV absorbance fell within the range of the calibration solutions.
1.2.4. Solubility estimation
For each compound, the calibration curve was calculated through the UV absorbance measurements and the linear equation of the linear part of the curve was calculated. The absorbance of the dilution was then interpolated in this range, finding its concentration.
To determine the solubility, this concentration was multiplied by the dilution factor, which was specific for each derivative. This action enabled the estimation of the in vitro solubility of the tested derivatives in saturated solutions. All the solubility values were the average value obtained from the 3 independent measurements.
1.3. PAMPA test: membrane permeability evaluation.
The passive transport and the membrane absorption of 5 selected selenocompounds (EDA-58, EDA-71, EDA-119, EDA-122, EDA-A6) were evaluated in the in vitro Parallel Artificial Membrane Permeability Assay (PAMPA). The protocol of the permeability assay was similar to the ones previously described.
1.3.1. Stock solutions and sample preparation for PAMPA test […]
For `CC(C)(C)C(=O)C[Se]C(=O)c1ccc(Cl)cc1` [EDA-73, Se-(3,3-dimethyl-2-oxobutyl) 4-chlorobenzoselenoate], the “fold less soluble than the most soluble Se compound (EDA-117)” value is listed as “more than 1000 fold”.

Staying with this data set, now noted: water (saturated solution), 20 °C, water, thermodynamic from solid; logSm calculated based on solubility Sm (mol/L); read-out: Experimental Aqueous Solubility logSm (converted).
`O=C1[Se]C(=O)c2ccccc21` [EDA-A6, benzo[c]selenophene-1,3-dione]: the solubility at 24 h is 3630 µM.
In the case of `COc1cc(OC)cc(C(=O)[Se]CC(=O)C(C)(C)C)c1` [EDA-74, Se-(3,3-dimethyl-2-oxobutyl) 3,5-dimethoxybenzoselenoate], the solubility at 24 h is 55 µM.
The same measure, in the same setting: as for `O=C(C[Se]C(=O)c1ccccc1)Oc1ccccc1` [EDA-93, phenyl 2-(benzoylselanyl)acetate], the figure is 69.2 µM; as for `C[Se]C(=O)c1ccc(C(=O)[Se]C)s1` [EDA-122, Se,Se-dimethyl thiophene-2,5-bis(carboselenoate)], 95.5 µM; as for `CC(=O)C[Se]C(=O)c1ccc(Cl)cc1` [EDA-71, Se-(2-oxopropyl) 4-chlorobenzoselenoate], 479 µM.
The same measure, in the same setting: the result for `C[Se]C(=O)c1cccc(C(=O)[Se]C)n1` [EDA-119, Se,Se-dimethyl pyridine-2,6-bis(carboselenoate)] reads 427 µM; that for `C[Se]C(=O)c1ccc(C(=O)[Se]C)cc1` [EDA-109, Se,Se-dimethyl benzene-1,4-bis(carboselenoate)], 87.1 µM; that for `C[Se]C(=O)c1cccc(C(=O)[Se]C)c1` [EDA-120, Se,Se-dimethyl benzene-1,3-bis(carboselenoate)], 81.3 µM.
As to `COC(=O)C[Se]C(=O)c1cc(OC)c(OC)c(OC)c1` [EDA-26, methyl 2-((3,4,5-trimethoxybenzoyl)selanyl)acetate], the solubility at 24 h was 1100 µM.
With `CC(C)(C)C(=O)C[Se]C(=O)c1ccc(Cl)cc1` [EDA-73, Se-(3,3-dimethyl-2-oxobutyl) 4-chlorobenzoselenoate], the solubility at 24 h was approximately 3.16 µM.

The data set is the same for the next values; noted with them: water (saturated solution), thermodynamic from solid; water, room temperature (20° C), after 24 h, average of 3; read-out: Experimental Aqueous Solubility.
Turning to `O=C1[Se]C(=O)c2ccccc21` [EDA-A6, benzo[c]selenophene-1,3-dione], the solubility at 24 h was 758 µg/mL.
With `COc1cc(OC)cc(C(=O)[Se]CC(=O)C(C)(C)C)c1` [EDA-74, Se-(3,3-dimethyl-2-oxobutyl) 3,5-dimethoxybenzoselenoate], the solubility at 24 h is 19 µg/mL.
On the same count and under the same terms, as for `O=C(C[Se]C(=O)c1ccccc1)Oc1ccccc1` [EDA-93, phenyl 2-(benzoylselanyl)acetate], the figure is 22 µg/mL; as for `C[Se]C(=O)c1ccc(C(=O)[Se]C)s1` [EDA-122, Se,Se-dimethyl thiophene-2,5-bis(carboselenoate)], 31 µg/mL.
The same measure, in the same setting: as for `CC(=O)C[Se]C(=O)c1ccc(Cl)cc1` [EDA-71, Se-(2-oxopropyl) 4-chlorobenzoselenoate], the figure is 132 µg/mL; as for `C[Se]C(=O)c1cccc(C(=O)[Se]C)n1` [EDA-119, Se,Se-dimethyl pyridine-2,6-bis(carboselenoate)], 137 µg/mL; as for `C[Se]C(=O)c1ccc(C(=O)[Se]C)cc1` [EDA-109, Se,Se-dimethyl benzene-1,4-bis(carboselenoate)], 28 µg/mL.
`C[Se]C(=O)c1cccc(C(=O)[Se]C)c1` [EDA-120, Se,Se-dimethyl benzene-1,3-bis(carboselenoate)]: the solubility at 24 h amounted to 26 µg/mL.
On to `COC(=O)C[Se]C(=O)c1cc(OC)c(OC)c(OC)c1` [EDA-26, methyl 2-((3,4,5-trimethoxybenzoyl)selanyl)acetate], for which the solubility at 24 h came to 380 µg/mL.
`CC(C)(C)C(=O)C[Se]C(=O)c1ccc(Cl)cc1` [EDA-73, Se-(3,3-dimethyl-2-oxobutyl) 4-chlorobenzoselenoate]: the solubility at 24 h is approximately 1 µg/mL.

Staying with this data set, now noted: water (saturated solution); logSm calculated based on solubility Sm (mol/L); read-out: Experimental Aqueous Solubility logSm (converted).
In the case of `CC(C)(C)C(=O)C[Se]C(=O)c1ccc(Cl)cc1` [EDA-73, Se-(3,3-dimethyl-2-oxobutyl) 4-chlorobenzoselenoate], the solubility at 24 h was 3.16 µM.

A further data set has as its system human liver microsomes (HLMs). Description: In vitro microsomal biotransformation test with TRIS buffer and solvent controls (LC-MS/MS). In kind it is in vitro ADME. The settings on record: TRIS buffer pH = 7.4, control of microsomal assay. The protocol: The assessment of the metabolites generated in the in vitro microsomal biotransformation of the selenoester EDA-71 in liver microsomes was performed following a previously described protocol with minor modifications. Only this compound was evaluated because it combined an optimal solubility to be analyzed in this procedure with very significant activity. The protocol is provided in full detail in the Supplementary Materials. Briefly, the compound was exposed to microsomes for 2 h, and the mixture was later analyzed with LC–MS/MS to detect the generated metabolites.
In the next step of the research, a biochemical in vitro method with the use of human liver microsomes (HLMs) was applied to determine the metabolic activity of the compound EDA-71. This human liver microsomal model provides all the enzymes required for the phase I metabolism reactions (hydrolysis, oxidation, and reduction). Moreover, it is also possible, in certain conditions following the addition of all necessary cofactors, to conduct metabolism II phase reactions (glutathione transferase and N-acetyltransferase enzymatic reactions). In the drug discovery process, the microsomal is a standard in vitro method for the metabolism evaluation. Additionally, this assay can predict the biotransformation kinetics and intrinsic clearance of new derivatives. Finally, these biotransformation processes can be easily monitored with LC–MS/MS.
The NADPH-regenerating system, which contained a phosphate buffer (pH = 7.4; NADP^+, glucose-6-phosphate, and glucose-6-phosphate dehydrogenase), was used. The biotransformation process was monitored with the LC–MS/MS method at the end of the procedure at 2 h after the incubation.
This experimental fact prevented the detailed analysis of metabolic stability. […] Thus, the tested compounds were dissolved in DMSO immediately before the experiment to minimize the degradation risk. […]
1.4. In vitro metabolic stability evaluation in microsomes
1.4.1. Microsomal metabolic stability protocol
For the microsomal stability assay, the selenoester EDA-71 was selected. Before the experimental procedure, the HLMs and solutions necessary for preparing the regenera-tion fraction were stored at -80° C and TRIS buffer at 4° C. The NADP+ regeneration frac-tion was prepared freshly, at the day of the experiment.
1.4.2. Preparation of the working solutions and microsomal regeneration fraction In the first step of the experiment, after selection of the compounds, the 1000 μM working solution was prepared in the TRIS buffer (0.1 M, pH 7.5) from the 10 mM stocks in DMSO. Then, the fresh regeneration fraction was prepared from the 220 μL TRIS buffer, 25 μL of the “A” solution and 5 μL of the “B” solution.
1.4.3. Human liver microsomes and solvent controls
Further, two controls have been prepared: solvent control (142 μL of TRIS buffer with 8 μL of HLMs, 50 μL of the regeneration fraction and 200 μL of the pure methanol) and tested compound control (190 μL of TRIS buffer with 10 μL of the 1 mM tested compound solution and 200 μL of methanol). The biotransformation was carried out at the precise concentration of 1 mg/mL of HLMs.
1.4.4. Biotransformation performance
In the next step 132 μL of TRIS buffer were added into a sterile eppendorf. After that, 10 μL of 1000 μM solution of tested compound in TRIS buffer were added to the above-mentioned eppendorf and then, 8 μL of HLMs. The final concentration of tested com-pound was 50 μM. After gently mixing on the vortex, reaction mixture was preincubated for 5 minutes at 37° C on the thermoblock. Then, in the further step, the reaction was ini-tiated by adding 50 μL of the NADP+ regeneration fraction and incubated at 37° C for 2 h.
After that time, to terminate the reaction, the 200 μL of pure, cold methanol (for LC-MS/MS analysis) was added to probe, which contained the tested compound with HLMs.
Moreover, the same amount of cold methanol was added into the control sample with […]
Turning to `CC(=O)C[Se]C(=O)c1ccc(Cl)cc1` [EDA-71, Se-(2-oxopropyl) 4-chlorobenzoselenoate], the “stability in TRIS buffer and LC-MS/MS analysis conditions” value is “may not be stable; also recorded: unstable”.

Still in this data set, the particulars now being: organic solvent, LC-MS/MS.
As for `O=C1[Se]C(=O)c2ccccc21` [EDA-A6, benzo[c]selenophene-1,3-dione], the “stability in DMSO” value is “stable”.
`C[Se]C(=O)c1ccc(C(=O)[Se]C)s1` [EDA-122, Se,Se-dimethyl thiophene-2,5-bis(carboselenoate)]: the “stability in DMSO” value is given as “stable”.
Take `CC(=O)C[Se]C(=O)c1ccc(Cl)cc1` [EDA-71, Se-(2-oxopropyl) 4-chlorobenzoselenoate]: the “stability in DMSO” value is “stable”.
With `C[Se]C(=O)c1cccc(C(=O)[Se]C)n1` [EDA-119, Se,Se-dimethyl pyridine-2,6-bis(carboselenoate)], the “stability in DMSO” value was “stable”.
As to `COC(=O)C[Se]C(=O)c1cc(OC)cc(OC)c1` [EDA-58, methyl 2-((3,5-dimethoxybenzoyl)selanyl)acetate], the “stability in DMSO” value was “stable”.

The solubility is the concentration that dissolves in the medium under given conditions.

The values are drawn from publication PMC8875489, “Pharmaceutical and Safety Profile Evaluation of Novel Selenocompounds with Noteworthy Anticancer Activity” (Pharmaceutics, 2022).
